In US20250059264A1, “METHOD OF TREATING STROKE” (AlaMab Therapeutics, Inc., priority 2023, published 2025):

Experiments:
Format in all cases: in vivo, ICR mice
[1] = test system: mouse model of stroke induced by middle cerebral artery occlusion (MCAO); assay: Beam-walking test (Example 1); details: 10 mg/kg i.v. Bid from 30 min after infarction
Experimental: (§1) The administration of the respective treatments was started 30 minutes after the MCAO procedure of the mice.
(§2) Seventy-two (72) ICR mice received behavioral training after adaptive feeding period and before the operation to establish stroke models. The behavioral training included beam-walking and rotarod test. The experimental mice were then randomly divided into 6 groups according to the values of the body weight, with 12 mice in each test group as described in Table 1.
(§3) The mice were fasted overnight before modeling and were anesthetized with isoflurane. Right middle cerebral artery occlusion (MCAO) was induced in mice using the intraluminal filament technique to mimic focal cerebral ischemic stroke. After 1 hr, reperfusion was allowed by removing the occlusion. During the operation, a white light was used to maintain the mouse rectal temperature between 36.5° C.-37.0° C.
(§4) Administration of each treatment was performed 0.5 h after the infarction. The neurological function score was evaluated at 24 hrs and 48 hrs after reperfusion, as was assessed by beam-walking, grip strength, and rotarod tests. At 48 h after reperfusion, the whole brain tissue of all rats was harvested to assess the cerebral infarct area by TTC staining, as well as to measure brain volume and brain water content, two indicators of acute cerebral edema.

[2] = test system: mouse model of stroke induced by middle cerebral artery occlusion (MCAO); assay: Grip strength (Example 1); details: 10 mg/kg i.v. Bid from 30 min after infarction
Experimental: as §1, §2, §3, §4

[3] = test system: mouse model of stroke induced by middle cerebral artery occlusion (MCAO); assay: Rotarod test (Example 1); details: 10 mg/kg i.v. Bid from 30 min after infarction
Experimental: as §1, §2, §3, §4

[4] = test system: mouse model of stroke induced by middle cerebral artery occlusion (MCAO); assay: Cerebral infarct volume by TTC staining (Example 1); details: 10 mg/kg i.v. Bid from 30 min after infarction, 48 h after reperfusion
Experimental: as §1, §2, §3, §4

[5] = test system: mouse model of stroke induced by middle cerebral artery occlusion (MCAO); assay: Brain water content (Example 1); details: 10 mg/kg i.v. Bid from 30 min after infarction; 48 h after reperfusion
Experimental: as §1, §2, §3, §4

[6] = test system: mouse model of stroke induced by middle cerebral artery occlusion (MCAO); assay: Brain volume (Example 1); details: 10 mg/kg i.v. Bid from 30 min after infarction; 48 h after reperfusion
Experimental: as §1, §2, §3, §4

[7] = test system: mouse model of stroke induced by middle cerebral artery occlusion (MCAO); assay: Beam-walking test, time of treatment (Example 2)
Experimental: (§5) The administration of 10 mg/kg butylphthalide and 50 mg/kg ALMB-0166 was started 30 minutes, 2 hours, or 6 hours after the MCAO procedure of the mice. Ninety-six (96) ICR mice received behavioral training after adaptive feeding period and before the operation to establish stroke models. The behavioral training included beam-walking and rotarod test. The experimental mice were then randomly divided into 8 groups according to the values of the body weight, with 12 mice in each test group as described in Table 1. The mice were fasted overnight before modeling and were anesthetized with isoflurane. Right middle cerebral artery occlusion (MCAO) was induced in mice using the intraluminal filament technique to mimic focal cerebral ischemic stroke. After 1 hr, reperfusion was allowed by removing the occlusion. Administration of each treatment was performed 0.5 hrs, 2 hrs, or 6 hrs after the infarction. The neurological function score was evaluated at 24 hrs and 48 hrs after reperfusion, as was assessed by beam-walking, grip strength, and rotarod tests. At 48 hrs after reperfusion, the whole brain tissue of all rats was harvested to assess the cerebral infarct area by TTC staining, as well as to measure brain volume and brain water content, two indicators of acute cerebral edema.

[8] = test system: mouse model of stroke induced by middle cerebral artery occlusion (MCAO); assay: Grip strength, time of treatment (Example 2)
Experimental: as §5

[9] = test system: mouse model of stroke induced by middle cerebral artery occlusion (MCAO); assay: Rotarod test, time of treatment (Example 2)
Experimental: as §5

[10] = test system: mouse model of stroke induced by middle cerebral artery occlusion (MCAO); assay: Cerebral infarct volume by TTC staining, time of treatment (Example 2); details: 48 h after reperfusion; for Improvement rate of infarction: vs model
Experimental: as §5

[11] = test system: mouse model of stroke induced by middle cerebral artery occlusion (MCAO); assay: Brain water content, time of treatment (Example 2); details: 10 mg/kg i.v. once 0.5 hr after infarction; 48 h after reperfusion
Experimental: as §5

[12] = 10 mg/kg i.v. once 0.5 hr after infarction, 24 h
[13] = 10 mg/kg i.v. once 0.5 hr after infarction, 48 h
[14] = 10 mg/kg i.v. once 2 hr after infarction, 24 h
[15] = 10 mg/kg i.v. once 2 hr after infarction, 48 h
[16] = 10 mg/kg i.v. once 6 hr after infarction, 24 h
[17] = 10 mg/kg i.v. once 6 hr after infarction, 48 h
[18] = 10 mg/kg i.v. once 0.5 hr after infarction
[19] = 10 mg/kg i.v. once 2 hr after infarction
[20] = 10 mg/kg i.v. once 6 hr after infarction

CCCCC1OC(=O)c2ccccc21 (stereo not drawn) [Butylphthalide]
Beam-walking time ([1]; 24 h): 41.27 ± 21.52 s
Beam-walking time ([1]; 48 h): 41.92 ± 22.83 s
Grip Strength ([2]; 24 h): 206.29 ± 46.55^ g
Grip Strength ([2]; 48 h): 214.71 ± 34.19 g
Rotarod test score, Time ([3]; 24 h): 216.67 ± 91.22 s
Rotarod test score, Time ([3]; 48 h): 146.50 ± 137.21 s
Cerebral Infarction Volume [4]: 27.29 ± 13.07 %
Improvement rate of infarction ([4]; vs model): 43.02%
Brain water content [5]: 329.50 ± 23.60 mg
Brain water ratio [5]: 81.84 ± 1.30%
Brain volume [6]: 0.413 ± 0.03 mL
Beam-walking time [7, 12]: 57.69 ± 3.94 s
Beam-walking time [7, 13]: 51.37 ± 16.46 s
Beam-walking time [7, 14]: 53.12 ± 12.48 s
Beam-walking time [7, 15]: 52.73 ± 10.98 s
Beam-walking time [7, 16]: 10.32 s
Beam-walking time [7, 17]: 58.57 ± 3.23 s
Grip Strength [8, 12]: 203.13 ± 35.30 g
Grip Strength [8, 13]: 196.04 ± 41.72 g
Grip Strength [8, 14]: 199.41 ± 38.48 g
Grip Strength [8, 15]: 186.33 ± 44.64 g
Grip Strength [8, 16]: 187.08 ± 53.81 g
Grip Strength [8, 17]: 168.16 ± 66.94 g
Rotarod test score, Time [9, 12]: 151.83 s
Rotarod test score, Time [9, 13]: 193.25 s
Rotarod test score, Time [9, 14]: 124.67 s
Rotarod test score, Time [9, 15]: 171.67 s
Rotarod test score, Time [9, 16]: 121.42 s
Rotarod test score, Time [9, 17]: 98.00 s
Cerebral Infarction Volume [10, 18]: 28.56%
Improvement rate of infarction [10, 18]: 33.50%
Cerebral Infarction Volume [10, 19]: 34.25%
Improvement rate of infarction [10, 19]: 20.25%
Cerebral Infarction Volume [10, 20]: 31.89%
Improvement rate of infarction [10, 20]: 25.76%
Brain water content [11]: 329.00 mg
